In PubChem BioAssay (NCI):
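Five compound concentrations were applied to cells in 96-well plates for 48 hours; endpoints were derived by simple linear interpolation of the resulting dose-response curve. GI50 = concentration required for 50% inhibition of growth. TGI marks complete inhibition of growth.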

Legend:
Assay in all cases: NCI anticancer screen, dose series, 48 h
KM12 colon = test system: KM12 colon
UO-31 renal = test system: UO-31 renal
A498 renal = test system: A498 renal
PC-3 prostate = test system: PC-3 prostate
HCT-116 colon = test system: HCT-116 colon
SF-539 CNS = test system: SF-539 CNS
U251 CNS = test system: U251 CNS
SN12C renal = test system: SN12C renal
UACC-257 melanoma = test system: UACC-257 melanoma
NCI-H460 lung = test system: NCI-H460 lung
NCI-H226 lung = test system: NCI-H226 lung
HS 578T breast = test system: HS 578T breast
SNB-75 CNS = test system: SNB-75 CNS
SF-268 CNS = test system: SF-268 CNS
HOP-92 NSCLC = test system: HOP-92 NSCLC
SK-OV-3 ovarian = test system: SK-OV-3 ovarian
OVCAR-8 ovarian = test system: OVCAR-8 ovarian
UACC-62 melanoma = test system: UACC-62 melanoma
OVCAR-3 ovarian = test system: OVCAR-3 ovarian
NCI/ADR-RES ovarian = test system: NCI/ADR-RES ovarian
K-562 leukemia = test system: K-562 leukemia
OVCAR-5 ovarian = test system: OVCAR-5 ovarian
HCT-15 colon = test system: HCT-15 colon
SK-MEL-2 melanoma = test system: SK-MEL-2 melanoma
RPMI-8226 leukemia = test system: RPMI-8226 leukemia
HCC-2998 colon = test system: HCC-2998 colon
EKVX NSCLC = test system: EKVX NSCLC
BT-549 breast = test system: BT-549 breast
SNB-19 CNS = test system: SNB-19 CNS
RXF 393 renal = test system: RXF 393 renal
SF-295 CNS = test system: SF-295 CNS
T-47D breast = test system: T-47D breast
M14 melanoma = test system: M14 melanoma
786-0 renal = test system: 786-0 renal
TK-10 renal = test system: TK-10 renal
LOX IMVI melanoma = test system: LOX IMVI melanoma
IGROV1 ovarian = test system: IGROV1 ovarian
HOP-62 NSCLC = test system: HOP-62 NSCLC
A549 NSCLC = test system: A549 NSCLC
OVCAR-4 ovarian = test system: OVCAR-4 ovarian
SW-620 colon = test system: SW-620 colon
HT29 colon = test system: HT29 colon
MDA-MB-231 breast = test system: MDA-MB-231 breast
CCRF-CEM leukemia = test system: CCRF-CEM leukemia
NCI-H23 lung = test system: NCI-H23 lung
CAKI-1 renal = test system: CAKI-1 renal
NCI-H522 lung = test system: NCI-H522 lung
DU-145 prostate = test system: DU-145 prostate
COLO 205 colon = test system: COLO 205 colon
MALME-3M melanoma = test system: MALME-3M melanoma
ACHN renal = test system: ACHN renal
MCF7 breast = test system: MCF7 breast
MDA-MB-435 = test system: MDA-MB-435
SK-MEL-5 melanoma = test system: SK-MEL-5 melanoma
HL-60(TB) leukemia = test system: HL-60(TB) leukemia
SK-MEL-28 melanoma = test system: SK-MEL-28 melanoma
MOLT-4 leukemia = test system: MOLT-4 leukemia

C=C1C(=O)O[C@H]2[C@H]1CC/C(COC(=O)NCc1ccc(Cn3c(=O)sn(CCCCl)c3=O)cc1)=C\CC[C@@]1(C)O[C@@H]21
GI50 (KM12 colon): 4.92 µM | TGI (KM12 colon): 17.5 µM | GI50 (UO-31 renal): 1.4 µM | TGI (UO-31 renal): 2.75 µM | GI50 (A498 renal): 2.83 µM | TGI (A498 renal): 11.8 µM | GI50 (PC-3 prostate): 2.13 µM | TGI (PC-3 prostate): 5.05 µM | GI50 (HCT-116 colon): 0.565 µM | TGI (HCT-116 colon): 1.87 µM | GI50 (SF-539 CNS): 1.74 µM | TGI (SF-539 CNS): 3.3 µM | GI50 (U251 CNS): 5.05 µM | TGI (U251 CNS): 17.2 µM | GI50 (SN12C renal): 1.36 µM | TGI (SN12C renal): 3.15 µM | GI50 (UACC-257 melanoma): 1.61 µM | TGI (UACC-257 melanoma): 3.41 µM | GI50 (NCI-H460 lung): 11.3 µM | TGI (NCI-H460 lung): 30.5 µM | GI50 (NCI-H226 lung): 16.6 µM | TGI (NCI-H226 lung): 42.6 µM | GI50 (HS 578T breast): 5.64 µM | TGI (HS 578T breast): 49 µM | GI50 (SNB-75 CNS): 2.03 µM | TGI (SNB-75 CNS): 11.4 µM | GI50 (SF-268 CNS): 2.63 µM | TGI (SF-268 CNS): 10.3 µM | GI50 (HOP-92 NSCLC): 1.1 µM | TGI (HOP-92 NSCLC): 2.47 µM | GI50 (SK-OV-3 ovarian): 18.3 µM | TGI (SK-OV-3 ovarian): 32.2 µM | GI50 (OVCAR-8 ovarian): 2.32 µM | TGI (OVCAR-8 ovarian): 5.42 µM | GI50 (UACC-62 melanoma): 1.44 µM | TGI (UACC-62 melanoma): 2.8 µM | GI50 (OVCAR-3 ovarian): 0.776 µM | TGI (OVCAR-3 ovarian): 2.09 µM | GI50 (NCI/ADR-RES ovarian): 26.9 µM | TGI (NCI/ADR-RES ovarian): > 100 µM | GI50 (K-562 leukemia): 0.726 µM | TGI (K-562 leukemia): > 100 µM | GI50 (OVCAR-5 ovarian): 2.64 µM | TGI (OVCAR-5 ovarian): 5.95 µM | GI50 (HCT-15 colon): 1.94 µM | TGI (HCT-15 colon): 4.25 µM | GI50 (SK-MEL-2 melanoma): 4.83 µM | TGI (SK-MEL-2 melanoma): 17.4 µM | GI50 (RPMI-8226 leukemia): 0.764 µM | TGI (RPMI-8226 leukemia): 3.1 µM | GI50 (HCC-2998 colon): 7.83 µM | TGI (HCC-2998 colon): 21.4 µM | GI50 (EKVX NSCLC): 2.82 µM | TGI (EKVX NSCLC): 12.2 µM | GI50 (BT-549 breast): 1.48 µM | TGI (BT-549 breast): 2.91 µM | GI50 (SNB-19 CNS): 4.84 µM | TGI (SNB-19 CNS): 17.4 µM | GI50 (RXF 393 renal): 1.35 µM | TGI (RXF 393 renal): 2.8 µM | GI50 (SF-295 CNS): 17.7 µM | TGI (SF-295 CNS): 31.7 µM | GI50 (T-47D breast): 1.97 µM | TGI (T-47D breast): 5.58 µM | GI50 (M14 melanoma): 1.93 µM | TGI (M14 melanoma): 4.5 µM | GI50 (786-0 renal): 1.48 µM | TGI (786-0 renal): 2.9 µM | GI50 (TK-10 renal): 1.75 µM | TGI (TK-10 renal): 3.34 µM | GI50 (LOX IMVI melanoma): 1.58 µM | TGI (LOX IMVI melanoma): 3.09 µM | GI50 (IGROV1 ovarian): 1.78 µM | TGI (IGROV1 ovarian): 3.88 µM | GI50 (HOP-62 NSCLC): 13.9 µM | TGI (HOP-62 NSCLC): 27.5 µM | GI50 (A549 NSCLC): 19.2 µM | TGI (A549 NSCLC): 34.6 µM | GI50 (OVCAR-4 ovarian): 1.67 µM | TGI (OVCAR-4 ovarian): 3.83 µM | GI50 (SW-620 colon): 1.23 µM | TGI (SW-620 colon): 3.31 µM | GI50 (HT29 colon): 2.46 µM | TGI (HT29 colon): 5.58 µM | GI50 (MDA-MB-231 breast): 1.72 µM | TGI (MDA-MB-231 breast): 3.33 µM | GI50 (CCRF-CEM leukemia): 0.577 µM | TGI (CCRF-CEM leukemia): 4.03 µM | GI50 (NCI-H23 lung): 2.33 µM | TGI (NCI-H23 lung): 5.36 µM | GI50 (CAKI-1 renal): 2.05 µM | TGI (CAKI-1 renal): 5.33 µM | GI50 (NCI-H522 lung): 0.538 µM | TGI (NCI-H522 lung): 1.94 µM | GI50 (DU-145 prostate): 1.64 µM | TGI (DU-145 prostate): 3.15 µM | GI50 (COLO 205 colon): 2.04 µM | TGI (COLO 205 colon): 3.92 µM | GI50 (MALME-3M melanoma): 1.34 µM | TGI (MALME-3M melanoma): 3.05 µM | GI50 (ACHN renal): 1.66 µM | TGI (ACHN renal): 3.05 µM | GI50 (MCF7 breast): 1.71 µM | TGI (MCF7 breast): 4.54 µM | GI50 (MDA-MB-435): 1.8 µM | TGI (MDA-MB-435): 3.89 µM | GI50 (SK-MEL-5 melanoma): 3.72 µM | TGI (SK-MEL-5 melanoma): 14.1 µM | GI50 (HL-60(TB) leukemia): 0.967 µM | TGI (HL-60(TB) leukemia): 3.77 µM | GI50 (SK-MEL-28 melanoma): 1.69 µM | TGI (SK-MEL-28 melanoma): 3.16 µM | GI50 (MOLT-4 leukemia): 1.5 µM | TGI (MOLT-4 leukemia): 5.41 µM
